Data reported in ChEMBL document CHEMBL1156829 (Proc Natl Acad Sci U S A, 2008).

Columns and labels:
[1] = NOVARTIS: Cytotoxicity against human hepatocellular carcinoma cell line (Huh7); type: toxicity, cell-based, Huh-7; conditions: Huh7 cells (hepatocellular carcinoma cell line)
Plasmodium falciparum [2] = experiment: NOVARTIS: Inhibition of Plasmodium falciparum 3D7 (drug-susceptible) proliferation in erythrocyte-based infection assay; type: functional, organism-based; conditions: Plasmodium falciparum, 3D7
Plasmodium falciparum [3] = experiment: NOVARTIS: Inhibition of Plasmodium falciparum W2 (drug-resistant) proliferation in erythrocyte-based infection assay; type: functional, organism-based; conditions: Plasmodium falciparum, W2; read-out: EC50

| SMILES | CC50 [1] | EC50 (Plasmodium falciparum [2]) | EC50 (Plasmodium falciparum [3]) |
| --- | --- | --- | --- |
| COc1ccc(/C=C2/SC(=Nc3ccccc3)NC2=O)cc1 | > 100 µM | 0.292 µM | 0.332 µM |
| CCOC(=O)c1c(CSc2ccccc2)oc2cc(CN(C)C)c(O)c(Cl)c12 | 61.6 µM | 0.321 µM | 0.209 µM |
| O=C(c1cccc(Cl)c1)N1CCN(c2ccc([N+](=O)[O-])c(NC3CC3)c2)CC1 | > 100 µM | 0.552 µM | 0.34 µM |
| CCCc1c(C(=O)OCC)c2cc(O)ccc2n1-c1ccc(OC)cc1 | > 100 µM | 0.133 µM | 0.339 µM |
| O=C(Cc1ccccc1)NC(c1ccc(Cl)cc1)c1ccc2cccnc2c1O (stereo unspecified) | > 100 µM | 0.209 µM | 0.337 µM |
| COc1ccc(C2C(C(=O)Nc3cc(Cl)c(OC)cc3OC)c3ccccc3C(=O)N2C)cc1 (stereo unspecified) | > 100 µM | 0.378 µM | 0.333 µM |
| CCc1c(C)c(C#N)c2nc3ccccc3n2c1NCc1ccco1 | > 100 µM | 0.271 µM | 0.333 µM |
| CN1CCc2c(sc3nc(SCc4ccc(F)cc4)n(-c4ccccc4)c(=O)c23)C1 | > 100 µM | 0.498 µM | 0.32 µM |
| O=C(NCc1nnc(SCC2CCCO2)n1Cc1ccccc1)c1cccc2ccccc12 (stereo unspecified) | 8.28 µM | 1.87 µM | < 0.0265 µM |
| CCOC(=O)c1c(CC)nc(-c2ccccc2)nc1C(=O)N1CCC(C)CC1 | 4.06 µM | > 1.25 µM | < 0.013 µM |
| Cc1nc(N2CCCCC2)c2c(C)c(C(=O)N3CCN(c4cccc(Cl)c4)CC3)sc2n1 | > 100 µM | > 12.5 µM | 0.319 µM |
| CCC(=O)N(C)CCCNc1ccnc2cc(Cl)ccc12 | > 100 µM | 0.467 µM | 0.341 µM |
| CCc1ccc(NC(=O)c2ccc(F)c(S(=O)(=O)NC3CCCC(C)C3C)c2)cc1 (stereo unspecified) | 66 µM | 1.35 µM | 0.216 µM |
| CC1(CNCc2ccccc2O)C2CC3CC(C2)CC1C3 (stereo unspecified) | > 10 µM | 0.143 µM | 0.0326 µM |
| Cc1nc(NN=Cc2c(O)ccc3ccccc23)cc(N2CCCCC2)n1 | > 100 µM | 0.609 µM | 0.339 µM |
| Cc1ccc(OCC(=O)Nc2cccc(C(=O)O)c2)c(Br)c1 | > 10 µM | > 1.25 µM | > 0.0349 µM |
| COc1ccccc1-n1nnnc1SCC(=O)Nc1cc([N+](=O)[O-])ccc1C | > 100 µM | 0.651 µM | 0.349 µM |
| O=C(Nc1ccc(Cl)cc1)c1c2c(nc3ccccc13)-c1ccccc1CC2 | > 100 µM | 0.41 µM | 0.338 µM |
| CCCCN(C(=O)Nc1c(C(C)C)cccc1C(C)C)C(CC)c1nc2ccccc2c(=O)n1-c1cccc(Cl)c1 (stereo unspecified) | > 6.29 µM | > 1.25 µM | < 0.0212 µM |
| COc1cc(OC)c(NC(=O)C2c3ccccc3C(=O)N(C)C2c2ccc(OC)c(OC)c2)cc1Cl (stereo unspecified) | > 100 µM | 0.983 µM | 0.328 µM |
| COc1cc(C=C(C#N)c2nc3ccccc3[nH]2)ccc1OCc1ccc(C)cc1 | > 100 µM | 0.684 µM | 0.328 µM |
| COc1ccc(C2CC(=O)C3=C(C2)NC(C)=C(C(=O)OC2CCCCC2)C3c2ccc(F)cc2)cc1OC (stereo unspecified) | 15.2 µM | 0.138 µM | 0.053 µM |
| O=C1C(NC2CCCC2)=C(N2CCCCC2)C(=O)c2ccccc21 | 10.1 µM | 0.0224 µM | 0.0342 µM |

| SMILES | CC50 [1] | EC50 (Plasmodium falciparum [2]) | EC50 (Plasmodium falciparum [3]) |
| --- | --- | --- | --- |
| COc1cc(OC)c(Br)c(-n2c(C(C)N(CCC(C)C)C(=O)c3ccccc3C)nc3ccccc3c2=O)c1 (stereo unspecified) | > 10 µM | > 1.25 µM | < 0.0337 µM |
| COc1cc(CNc2ccc(N3CCCCC3)cc2)ccc1OCc1ccccc1F | > 100 µM | 0.475 µM | 0.335 µM |
| COc1ccc(C2C(C(=O)Nc3cccc(OC)c3)c3ccccc3C(=O)N2C2CCCCC2)cc1 (stereo unspecified) | > 100 µM | 1.11 µM | 0.332 µM |
| COc1cccc(C(=O)Oc2ccccc2-c2nc3ccccn3c2NC(C)(C)CC(C)(C)C)c1 | > 10 µM | 0.27 µM | 0.033 µM |
| N#Cc1ccc(N2CCCN(C(=S)NC3CCCC3)CC2)nc1 | > 100 µM | 0.65 µM | 0.33 µM |
| CCOC(=O)C1=CN(c2cc(C)ccc2C)C=C(C(=O)OCC)C1c1ccccc1OCC | > 100 µM | 0.264 µM | 0.328 µM |
| CN(C)CCNCc1cc(-c2ccnc3cc(Cl)ccc23)ccc1O | 45.6 µM | 0.12 µM | 0.152 µM |
| COC(=O)C1=C(C)NC2=C(C(=O)CC(c3ccccc3)C2)C1c1ccc(Cl)cc1 (stereo unspecified) | > 100 µM | 1.22 µM | 0.333 µM |
| Cc1onc(-c2ccccc2Cl)c1C(=O)Nc1cc(Cl)ccc1Cl | > 100 µM | 0.369 µM | 0.33 µM |
| Cc1ccc(NC(=O)c2ccc(NCCCN3CCC(C)CC3)c([N+](=O)[O-])c2)cc1F | > 100 µM | 0.191 µM | 0.33 µM |
| CCC(C(=O)Oc1ccccc1-c1nc2cc(C)ccn2c1NC(C)(C)CC(C)(C)C)c1ccccc1 (stereo unspecified) | > 10 µM | 0.894 µM | 0.0347 µM |
| CCOC(=O)c1c(C)n(Cc2ccccc2)c2c1cc(O)c1c2c(-c2ccccc2)nn1-c1ccccc1 | > 100 µM | 1.06 µM | 0.345 µM |
| COc1cc(OC)c(N(C)C(=O)c2cc3c(s2)-c2ccccc2S(=O)(=O)C3)cc1Cl | > 55.6 µM | 0.113 µM | 0.179 µM |
| CCOc1ccc(C(=O)N2CCN(Cc3ccccc3)CC2)cc1 | > 100 µM | > 3.67 µM | 0.322 µM |
| CCCC(=O)NC(c1cccc([N+](=O)[O-])c1)c1ccc2cccnc2c1O (stereo unspecified) | 38.8 µM | 0.32 µM | 0.125 µM |
| O=C(CSc1nc2cc3c(cc2c(=O)n1Cc1ccco1)OCO3)Nc1cc(C(F)(F)F)ccc1Cl | > 100 µM | 0.247 µM | 0.326 µM |
| COc1cccc(CNC(=O)[C@@H]2CNC[C@H]2c2ccc(C(F)(F)F)cc2)c1 | 23.8 µM | 0.108 µM | 0.0775 µM |
| CCCOC(=O)C1=C(C)NC2=C(C(=O)CC(c3ccc(OC)c(OC)c3)C2)C1c1cccc(Br)c1 (stereo unspecified) | 21.6 µM | 0.322 µM | 0.0744 µM |
| O=C(Nc1ccc(-n2cccn2)cc1)C1CCN(CC=Cc2ccccc2)CC1 | > 99.8 µM | 0.887 µM | 0.344 µM |
| O=[N+]([O-])c1cccc(-c2ccc(C=NNc3nc4ccccc4[nH]3)o2)c1 | > 100 µM | 0.379 µM | 0.344 µM |
| O=C(CC1OC(=O)c2ccccc21)c1ccc(Cl)cc1 (stereo unspecified) | > 100 µM | 0.717 µM | 0.342 µM |
| CCOC(=O)c1cn(CC)c2cc(N3CCCCC3)c(F)cc2c1=O | > 100 µM | 0.166 µM | 0.336 µM |
| Cc1cc(NC(=O)C=Cc2ccccc2Cl)ccc1Br | > 100 µM | 1.27 µM | 0.344 µM |

| SMILES | CC50 [1] | EC50 (Plasmodium falciparum [2]) | EC50 (Plasmodium falciparum [3]) |
| --- | --- | --- | --- |
| Cc1ccn2c(NC(C)(C)CC(C)(C)C)c(-c3ccccc3OC(=O)c3ccco3)nc2c1 | > 10 µM | 0.828 µM | 0.0341 µM |
| CC(C)(C)CC(C)(C)Nc1c(-c2ccccc2OC(=O)/C=C/c2ccccc2)nc2ccccn12 | > 10 µM | 0.457 µM | 0.034 µM |
| COc1ccccc1C1CC(=O)N2CN(Cc3ccccc3)CSC2=C1C#N (stereo unspecified) | > 100 µM | 0.599 µM | 0.337 µM |
| CCOC(=O)c1[nH]c(C)c(Cc2ccc(OCC)cc2)c1C | > 100 µM | 0.279 µM | 0.347 µM |
| O=C1C2C(C(=O)N1c1ccccc1F)C1(c3ccccc3)C(=O)C2(c2ccccc2)C(c2ccccc2)=C1c1ccccc1 (stereo unspecified) | > 100 µM | 0.811 µM | 0.344 µM |
| COc1ccc(C2=CC(=Cc3cccc(OC)c3OC)C(=O)O2)cc1OC | > 100 µM | 4.76 µM | 0.332 µM |
| O=C(NC1CC1)C1CCN(c2cccc3c2C(=O)N(C2CCCCCCC2)C3=O)CC1 | > 51.8 µM | 0.203 µM | 0.169 µM |
| COC(=O)C1CCN(C(=O)COC(c2ccccc2)c2cccnc2Cl)CC1 (stereo unspecified) | > 2.45 µM | > 1.25 µM | < 0.00796 µM |
| Cc1ccc(C[n+]2cc(-c3ccc(F)cc3)n3c2CCC3)cc1 | > 100 µM | 0.867 µM | 0.321 µM |
| Cc1ccc(NC(=O)C2CSC(c3cccc(F)c3)N2C(=O)c2ccc(C(C)(C)C)cc2)cc1 (stereo unspecified) | > 100 µM | 0.449 µM | 0.349 µM |
| COc1ccc(C2=C(c3ccc(OC)cc3)C3(c4ccccc4)C(=O)C2(c2ccccc2)C2C(=O)N(c4cc(Cl)ccc4C)C(=O)C23)cc1 (stereo unspecified) | > 100 µM | 0.447 µM | 0.346 µM |
| CC(=O)N(C1=C(N2CCC(C)CC2)C(=O)c2ccccc2C1=O)c1cccc(F)c1 | 66.4 µM | 0.241 µM | 0.233 µM |
| CCOC(=O)C1=C(C)N=c2sc(=Cc3ccccc3OC(C)=O)c(=O)n2C1c1ccc(OC)cc1 (stereo unspecified) | > 100 µM | 0.515 µM | 0.339 µM |
| CCOC(=O)C(Cc1ccc(O)cc1)NC1=CC(=O)C(=O)c2ccccc21 (stereo unspecified) | > 100 µM | 0.305 µM | 0.333 µM |
| O=C1C(=O)N(Cc2ccccc2[N+](=O)[O-])c2ccccc21 | > 100 µM | 0.71 µM | 0.326 µM |
| CCC(C(=O)Oc1ccccc1-c1nc2ccccn2c1NC(C)(C)CC(C)(C)C)c1ccccc1 (stereo unspecified) | > 10 µM | 0.685 µM | 0.0329 µM |
| COc1ccc(-n2nc([N+](=O)[O-])c(Nc3ccc([N+](=O)[O-])cc3C)[n+]2[O-])cc1 | > 100 µM | 1.3 µM | 0.32 µM |
| CCCN(CCC)C1=CC(=O)C(C(C)(C)C)=CC1=O | 50.9 µM | 0.216 µM | 0.171 µM |
| COc1ccc(OC)c(C2CC(=O)C3=C(C2)NC(=O)CC3c2ccc([N+](=O)[O-])cc2)c1 (stereo unspecified) | 72.2 µM | 0.262 µM | 0.229 µM |
| O=C1CN=C(c2ccccc2)c2cc(Cl)ccc2N1Cc1cc(=O)n2ccccc2n1 | > 100 µM | 3.55 µM | 0.344 µM |
| CCC(Oc1ccc(C(C)(C)CC)cc1C(C)(C)CC)C(=O)Nc1ccc([N+](=O)[O-])cc1O (stereo unspecified) | > 100 µM | > 5.26 µM | 0.348 µM |
